Assay results published in patent EP0556482B1, “Propyl endopeptidase inhibitor” (SNOW BRAND MILK PRODUCTS CO., LTD., priority 1991, dated 1993).
Where two headings read alike, the source gives them in different places. *1 amine or outer side, *2 acyl side, *3 side chain or, on linkers, in order; H or OH if unused. Where a SMILES comes first, the peptide text is derived from it. Bridges are numbered along the chain shown (N, C = ends). [ ]: non-standard residue; d: D form. The star is where a group is joined. Undeca(2Z,4E)dienoyl(10-Me) = CC(C)CCCC/C=C/C=C\C(=O)*; Phg(3,5-Cl2-4-OH) = N[C@H](C(=O)O)c1cc(Cl)c(O)c(Cl)c1; X1 = N=C1NC[C@@H](C[C@@H](N[*:1])C(=O)[*:2])N1; X2 = N=C1NC[C@@H](C[C@H](N[*:1])C(=O)[*:2])N1; d(aThr) = C[C@@H](O)[C@@H](N)C(=O)O; dHpg = N[C@@H](C(=O)O)c1ccc(O)cc1; Hpg = N[C@H](C(=O)O)c1ccc(O)cc1; Cit = NC(=O)NCCC[C@H](N)C(=O)O; aThr = C[C@H](O)[C@H](N)C(=O)O; dOrn = NCCC[C@@H](N)C(=O)O

Experiments:
mouse = details: in vivo, ip; cited from earlier work
rat = details: in vivo, iv; cited from earlier work
[1] = molecular target: T1, prolyl endopeptidase derived from human placenta (Homo sapiens, UniProt P48147); test: Prolyl endopeptidase inhibitive activity, human placenta enzyme (fluorometric, Z-Gly-Pro-7-AMC substrate); assay type: biochemical; parameters: obtaining a supernatant, from which microsome fractions had been removed, as a prolyl endopeptidase fraction; from tissue; host or cells: human placenta, cytosol fraction (104,000 x g supernatant), crude enzyme
T1 sequence (P48147 1-710): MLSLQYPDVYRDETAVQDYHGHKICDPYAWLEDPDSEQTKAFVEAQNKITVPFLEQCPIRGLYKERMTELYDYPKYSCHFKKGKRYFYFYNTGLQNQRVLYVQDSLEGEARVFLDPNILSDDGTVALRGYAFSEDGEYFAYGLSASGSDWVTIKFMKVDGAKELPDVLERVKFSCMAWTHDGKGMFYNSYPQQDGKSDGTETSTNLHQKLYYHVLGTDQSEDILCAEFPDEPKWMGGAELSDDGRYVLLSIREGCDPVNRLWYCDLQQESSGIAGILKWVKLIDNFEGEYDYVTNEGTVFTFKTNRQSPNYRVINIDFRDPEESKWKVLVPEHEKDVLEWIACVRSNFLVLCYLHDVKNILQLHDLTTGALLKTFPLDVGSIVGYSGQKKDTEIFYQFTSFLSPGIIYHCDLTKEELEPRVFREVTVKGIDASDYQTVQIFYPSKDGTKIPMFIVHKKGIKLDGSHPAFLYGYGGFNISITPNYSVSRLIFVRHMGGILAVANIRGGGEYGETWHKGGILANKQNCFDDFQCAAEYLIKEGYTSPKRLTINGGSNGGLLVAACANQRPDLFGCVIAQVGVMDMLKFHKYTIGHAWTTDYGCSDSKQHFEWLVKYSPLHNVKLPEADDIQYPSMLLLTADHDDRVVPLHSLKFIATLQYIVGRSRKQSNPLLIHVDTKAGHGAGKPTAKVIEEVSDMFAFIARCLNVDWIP
Method: (§1) The inhibitive activity of enduracidin A was measured by using a methanol solution of this compound.
(§2) The prolyl endopeptidase inhibitive activity in the present invention was measured by the following method. Prolyl endopeptidase from human placenta was prepared according to the method for preparing aromatase [Chem. Pharm. […] The placenta tissues were pulverized and homogenized with a 67 mM potassium phosphate buffer (pH 7.5) containing 5 mM DTT and 0.25 M sucrose. The homogenized solution was centrifuged at 10,000 x g for 30 minutes to obtain a supernatant.
To carry out the enzyme reaction, 0.01 ml of each sample dissolved in methanol in various concentrations and 0.01 ml of the placenta cytosol fraction were added to 0.96 ml of a 0.1 M Tris-HCl buffer solution (pH 7.0), and the resulting solution was mixed and incubated at 37°C for 5 minutes. The reaction was initiated by the addition of 0.02 ml of a 2 mM solution of synthesized substrate, Z-Gly-Pro-7-AMC (a product of Cambridge Research Biochemicals), dissolved in 40% dioxane to said solution, and continued for 10 minutes at 37°C. […]
(§3) The inhibition rate was determined by the formula, [(A-B)/A] x 100 (%), wherein A represents a fluorescent concentration of liberated 7-AMC in the reaction of the control and B is a fluorescent concentration of liberated 7-AMC in the reaction to which a sample was added.

[2] = molecular target: T1, prolyl endopeptidase derived from human placenta; test: as above; assay type: biochemical; parameters: obtaining a supernatant, from which microsome fractions had been removed, as a prolyl endopeptidase fraction; from tissue; host or cells: human placenta, cytosol fraction (104,000 x g supernatant)
Method: as §1, §2
To carry out the enzyme reaction, 0.01 ml of each sample dissolved in methanol in various concentrations and 0.01 ml of the placenta cytosol fraction were added to 0.96 ml of a 0.1 M Tris-HCl buffer solution (pH 7.0), and the resulting solution was mixed and incubated at 37°C for 5 minutes. The reaction was initiated by the addition of 0.02 ml of a 2 mM solution of synthesized substrate, Z-Gly-Pro-7-AMC (a product of Cambridge Research Biochemicals), dissolved in 40% dioxane to said solution, and continued for 10 minutes at 37°C. After the reaction, 0.5 ml of a reaction termination agent (10 g of Triton X-100/95 ml, 1 M acetate buffer, pH 4.0) and 2 ml of water were added to measure 7-AMC (7-amino-4-methylcoumarin) liberated by the reaction at an excitation wavelength of 380 nm and an emission wavelength of 460 nm.
as §3

[3] = molecular target: T2, prolyl endopeptidase derived from Flavobacterium (Elizabethkingia meningoseptica, UniProt P27028); assay type: biochemical; details: Table 1; enzyme from Flavobacterium; read-out: IC₅₀ (µM) Flavobacterium
T2 construct: purchased Seikagaku Kogyo Co
Method: as §1, §3

[4] = comparison of both enzymes, in words

T2 sequence (P27028 21-705): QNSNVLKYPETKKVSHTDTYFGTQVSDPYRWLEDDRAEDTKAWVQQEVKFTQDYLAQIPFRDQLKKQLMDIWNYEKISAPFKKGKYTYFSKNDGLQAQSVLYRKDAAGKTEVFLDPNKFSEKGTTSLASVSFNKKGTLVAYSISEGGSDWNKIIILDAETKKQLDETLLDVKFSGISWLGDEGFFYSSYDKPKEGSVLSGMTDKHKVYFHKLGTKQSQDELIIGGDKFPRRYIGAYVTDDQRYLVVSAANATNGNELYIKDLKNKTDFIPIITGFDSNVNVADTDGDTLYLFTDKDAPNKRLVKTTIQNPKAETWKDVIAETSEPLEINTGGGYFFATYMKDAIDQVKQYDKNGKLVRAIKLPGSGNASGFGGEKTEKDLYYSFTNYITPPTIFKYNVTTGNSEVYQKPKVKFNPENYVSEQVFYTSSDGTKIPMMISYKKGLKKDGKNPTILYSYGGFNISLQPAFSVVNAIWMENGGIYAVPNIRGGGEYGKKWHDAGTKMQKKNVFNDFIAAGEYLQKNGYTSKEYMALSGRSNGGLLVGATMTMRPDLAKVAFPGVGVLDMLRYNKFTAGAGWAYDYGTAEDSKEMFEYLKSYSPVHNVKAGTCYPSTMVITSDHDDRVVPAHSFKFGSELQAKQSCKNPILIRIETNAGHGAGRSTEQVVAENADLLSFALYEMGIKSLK

Compound: CC(C)CCCC/C=C/C=C\C(=O)N[C@@H](CC(=O)O)C(=O)N[C@@H]1C(=O)N[C@H](c2ccc(O)cc2)C(=O)N[C@H](CCCN)C(=O)N[C@H]([C@@H](C)O)C(=O)N[C@@H](c2ccc(O)cc2)C(=O)N[C@H](c2ccc(O)cc2)C(=O)N[C@@H]([C@H](C)O)C(=O)N[C@@H](CCCNC(N)=O)C(=O)N[C@H](C[C@@H]2CNC(=N)N2)C(=O)N[C@@H](c2ccc(O)cc2)C(=O)N[C@H](CO)C(=O)N[C@@H](c2cc(Cl)c(O)c(Cl)c2)C(=O)NCC(=O)N[C@@H](C[C@@H]2CNC(=N)N2)C(=O)N[C@H](C)C(=O)N[C@@H](c2ccc(O)cc2)C(=O)O[C@@H]1C [Enduracidin A] ({Undeca(2Z,4E)dienoyl(10-Me)}-DT[dHpg][dOrn][d(aThr)][Hpg][dHpg][aThr][Cit][X1][Hpg][dS][Phg(3,5-Cl2-4-OH)]G[X2][dA][Hpg]; ester 2-C)
- acute toxicity LD₅₀ (mouse): greater than 400 mg/kg
- acute toxicity LD₅₀ (rat): > 300 mg/kg
- mode of inhibition ([1]; Dixon Plot, enzyme from human placenta): noncompetitive inhibition
- specificity: inhibitive activity to enzyme from human placenta compared with enzyme from Flavobacterium [1, 4]: much higher specificity to the enzyme derived from human placenta

Compound: CN[C@@H]1C[C@H]2O[C@@](C)([C@@H]1OC)n1c3ccccc3c3c4c(c5c6ccccc6n2c5c31)C(=O)NC4 [Staurosporine]
- IC50 [2]: > 107 µM
- inhibitive activity to the enzyme derived from human placenta ([2]; result in words): very weak inhibitive activity

Compound: CC[C@H](C)[C@H](NC(=O)[C@H](Cc1ccccc1)NC(=O)[C@@H](NC(=O)[C@H](Cc1c[nH]cn1)NC(=O)CNC(=O)CNC(=O)[C@H](Cc1ccccc1)NC(=O)[C@H](CC(C)C)NC(=O)[C@@H]1CC(=O)NCC(=O)N[C@@H](Cc2ccc(O)cc2)C(=O)N2CCC[C@H]2C(=O)N[C@@H](Cc2c[nH]c3ccccc23)C(=O)N[C@@H](Cc2c[nH]c3ccccc23)C(=O)N[C@@H](CC(=O)O)C(=O)N[C@@H](Cc2ccc(O)cc2)C(=O)N[C@@H](CCCNC(=N)N)C(=O)N1)[C@@H](C)O)C(=O)N[C@@H](CO)C(=O)N1CCC[C@H]1C(=O)O [SNA-115] (GYPWWDYRDLFGGHTFISP-OH; lactam N-9)
- IC50 [3]: 0.35 µM
- IC50 ([2]; Table 1, enzyme from human placenta, read-out: IC₅₀ (µM) Human placenta): 0.22 µM
- specificity: inhibitive activity to enzyme from human placenta compared with enzyme from Flavobacterium [2, 4]: almost the same degree of inhibitive activity
